We go through 12 compounds from publication PMC5694482 (Frontiers in Pharmacology, 2017).

Test [1] deals with T1, H3R (Homo sapiens, UniProt Q9Y5N1). The test is described as follows: G protein (Gi1) activation BRET assay, H3R, agonist and antagonist mode. The following applies: BRET Gi1 biosensor, up to 10,000 nM. The test is classed as cell-based. On the set-up: expressed in transfected cells; host or cells: HEK293T. (In general: In BRET a luciferase serves as donor, and the signal depends on an acceptor being close.)

In test [2] the test system is mouse asthma model. Nature of the test: OVA-induced allergic asthma in mice, cell counts in bronchoalveolar lavage. Particulars: 3 and 5 mg/kg intraperitoneally 30 min before antigen challenge. The test is classed as in vivo, Male C57Bl/6 mice. The procedure: Male C57Bl/6 mice weighing 20–25 g, 6–8 weeks old, from our own animal facilities were housed in a room with a 12 h light–dark cycle with water and food ad libitum. Animal care and research protocols were in accordance with the principles and guidelines adopted by the Brazilian College of Animal Experimentation (COBEA) and this project was approved by the Ethical Committee for Animal Research of the Federal University of São Paulo (CEUA 1666/99).
Mice (n = 5 per group) were sensitized on days 0 and 7 by an intraperitoneal injection of a mixture containing […] of ovalbumin (OVA; Grade V, Sigma–Aldrich, United States) and 1 mg of Al(OH)3 in PBS (a total volume of 0.2 ml). Mice were challenged by exposure to an aerosol of OVA generated by an ultrasonic nebulizer (ICEL US-800, SP, Brazil) delivering particles of […] diameter at approximately 0.75 cc/min for 20 min at days 14 and 21. The concentration of OVA in the nebulizer was 2.5% w/v in PBS. The control group consisted of animals immunized as previously described and challenged two times with PBS solution. Compounds 1d and 1e were administered intraperitoneally in two different dosages (5 and 3 mg/kg) to the test groups 30 min before the antigen challenge. Sensitized and control groups were used to assess the anti-inflammatory activity ([Corrêa et al., 2017]).
Mice were euthanized with intraperitoneal ketamine and xylazine (100 and 10 mg/kg, respectively; Agibrands do Brazil, São Paulo, São Paulo, Brazil), 24 h after exposure to the last aerosol challenge. A tracheal cannula was inserted via a mid cervical incision, and the airways were washed twice with 1 ml of phosphate-buffered saline (PBS, pH 7.4 at 4°C).
The bronchoalveolar lavage fluid was centrifuged at 170 × g for 10 min at 4°C, the supernatant was removed, and the cell pellet was re-suspended in 1 ml of PBS. One volume of a solution containing 0.5% crystal violet dissolved in 30% acetic acid was added to nine volumes of the cell suspension. The total number of cells was determined by counting in a hematocytometer. […]

The target in test [3] is T2, H4R (Homo sapiens, UniProt Q9H3N8).
T2 construct: expressed in transfected cells; host or cells: HEK293T
Nature of the test: G protein (Gi1) activation BRET assay, H4R, agonist and antagonist mode. The test is classed as cell-based. Particulars: for Gi activation at H4R (agonist mode): BRET Gi1 biosensor, up to 10,000 nM; for block of histamine activity at H4R (antagonist mode): preincubation 30 min at 10,000 nM before histamine.

In test [4] the target is T1, H3R. Particulars: for Ki: H3R pKi ± SEM; for SI H4R/H3R (Ki): selectivity index, ratio of Ki H4R/H3R.
Test [5] deals with T2, H4R. Nature of the test: Competition binding assay with [3H]-histamine in HEK293T cells transiently expressing H4R. The following applies: for binding to H4R in initial screening (in words): screening format, Supplementary Figure S2.
The subject of test [6] is mouse asthma model. Particulars: cited from earlier work.
Where [7] appears, read: displacement of 1.15 nM [3H]-histamine, HEK293T cells, Cheng-Prusoff.
[8] abbreviates: displacement of 1.15 nM [3H]-histamine, HEK293T cells, Cheng-Prusoff, read-out: H4R pKi ± SEM (converted).

Where “and” joins values, the source holds several entries; their conditions need not be identical. Equal entries are not always repeated. Entries after “also recorded” stand apart in the source; their conditions may differ. Where two headings read alike, the source gives them in different places. Some results are limits rather than exact numbers.

T2 sequence (Q9H3N8 whole entry, species assumed): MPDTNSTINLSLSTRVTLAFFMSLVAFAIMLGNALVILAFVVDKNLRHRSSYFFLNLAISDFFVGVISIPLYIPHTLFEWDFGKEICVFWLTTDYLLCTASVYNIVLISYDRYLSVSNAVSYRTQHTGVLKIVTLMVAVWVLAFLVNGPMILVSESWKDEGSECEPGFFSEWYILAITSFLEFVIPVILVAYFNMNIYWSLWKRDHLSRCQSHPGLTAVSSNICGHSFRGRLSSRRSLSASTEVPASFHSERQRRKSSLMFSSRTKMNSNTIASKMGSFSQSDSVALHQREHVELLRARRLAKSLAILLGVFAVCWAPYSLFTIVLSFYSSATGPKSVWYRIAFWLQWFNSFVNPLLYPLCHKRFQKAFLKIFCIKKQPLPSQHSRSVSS
T1 sequence (Q9Y5N1 whole entry, species assumed): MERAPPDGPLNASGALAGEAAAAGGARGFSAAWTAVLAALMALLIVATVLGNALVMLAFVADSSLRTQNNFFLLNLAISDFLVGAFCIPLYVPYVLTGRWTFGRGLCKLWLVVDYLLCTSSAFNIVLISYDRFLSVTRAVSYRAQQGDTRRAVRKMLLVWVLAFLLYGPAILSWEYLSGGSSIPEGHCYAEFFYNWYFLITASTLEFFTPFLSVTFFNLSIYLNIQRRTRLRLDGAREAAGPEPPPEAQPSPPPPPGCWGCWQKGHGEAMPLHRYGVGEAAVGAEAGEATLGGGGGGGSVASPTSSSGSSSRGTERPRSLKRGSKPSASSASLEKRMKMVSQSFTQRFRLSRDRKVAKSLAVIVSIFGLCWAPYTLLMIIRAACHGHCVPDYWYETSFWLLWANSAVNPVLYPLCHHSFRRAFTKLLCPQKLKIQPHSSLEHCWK

Regarding `NC(=NCc1ccc(Cl)cc1)SCCCc1cnc[nH]1` [Clobenpropit], the “Gi activation at H3R (agonist mode)” value in test [1] is reported as “unable to trigger Gi activation”.

Regarding `CN1CCN(CC2Cc3cc(Cl)ccc3O2)CC1` (centres unmarked) [1e, 1-[(5-chloro-2,3-dihydro-1-benzofuran-2-yl)methyl]-4-methylpiperazine], the “effect on total inflammatory cell and eosinophil counts in bronchoalveolar lavage” value is “low counts in both doses; also recorded: highly effective at low doses” in test [2] and “better anti-inflammatory activity” in test [2] (listed as LINS01007). In addition, the “Gi activation at H4R (agonist mode)” value in test [3] is on record as “did not trigger Gi activation”. In addition, the “block of histamine activity at H4R (antagonist mode)” value in test [3] is on record as “fully blocked histamine agonistic effect”. Besides, the Ki is ~851 nM and 851 nM in test [4] (setting [7]); 871 nM in test [5] (setting [8]). In addition, the “SI H4R/H3R (Ki)” value in test [4] stood at 1.1. In addition, in test [5] (1e against the non-substituted molecule), the “increase in affinity for H4R by insertion of the chlorine atom” value was “more than 10 fold”. Also, the “binding to H4R in initial screening (in words)” value in test [5] was “considerable binding to H4R”.

Take `c1ccc2c(c1)CC(CN1CCNCC1)O2` (centres unmarked) [1a, 1-[(2,3-Dihydro-1-benzofuran-2-yl)methyl]piperazine]: the “affinity for H3R (in words)” value in test [4] is reported as “did not show appreciable affinity”. Also, the Ki in test [4] (setting [7]) and in test [5] (setting [8]) was over 10000 nM each time.

Consider `CN1CCN(CC2Cc3cc(C(C)(C)C)ccc3O2)CC1` (centres unmarked) [1h, 1-methyl-4-[(5-tert-butyl-2,3-dihydro-1-benzofuran-2-yl)methyl]piperazine], for which the Ki in test [4] (setting [7]) was ~851 nM and 851 nM; in test [5] (setting [8]) it was over 10000 nM. Moreover, the “SI H4R/H3R (Ki)” value in test [4] was over 11.

In the case of `C=CCN1CCN(CC2Cc3ccccc3O2)CC1` (centres unmarked) [1c, 1-allyl-4-[(2,3-dihydro-1-benzofuran-2-yl)methyl]piperazine], in test [4] (setting [7]), the “H3R pKi ± SEM” value stood at 6.40 ± 0.21. Besides, the “SI H4R/H3R (Ki)” value in test [4] is over 25. Also, the Ki in test [5] (setting [8]) was over 10000 nM.

As to `CN1CCN(CC2Cc3ccccc3O2)CC1` (centres unmarked) [1b, 1-[(2,3-dihydro-1-benzofuran-2-yl)methyl]-4-methylpiperazine], the Ki in test [4] (setting [7]) is 2690 nM; in test [5] (setting [8]), over 10000 nM.

Turning to `Clc1ccc2c(c1)CC(CN1CCN(c3ccccc3)CC1)O2` (centres unmarked) [1i, 1-[(5-chloro-2,3-dihydro-1-benzofuran-2-yl)methyl]-4-phenylpiperazine], in test [4], the “affinity for H3R (in words)” value is reported as “did not show appreciable affinity”. Besides, the Ki in test [4] (setting [7]) and in test [5] (setting [8]) was over 10000 nM each time.

`CN1CCN(C(=O)c2cc3cc(Cl)ccc3[nH]2)CC1` [JNJ-7777120, reference compound]: the “effect on inflammatory infiltrations in experimental murine asthma model” value in test [6] (ref Neumann et al., 2013) is listed as “capable of reducing the inflammatory infiltrations”.

Turning to `Cc1ccc2c(c1)CC(CN1CCN(C)CC1)O2` (centres unmarked) [1f, 1-methyl-4-[(5-methyl-2,3-dihydro-1-benzofuran-2-yl)methyl]piperazine], in test [3], the “Gi activation at H4R (agonist mode)” value was “weak agonistic effect in high concentrations; also recorded: moderate agonistic effect” and the “block of histamine activity at H4R (antagonist mode)” value is “only partially blocked histamine activity; also recorded: only partially reduced histamine effect”. The same compound gave a Ki in test [4] (setting [7]) of 708 nM. In test [4], the “SI H4R/H3R (Ki)” value stood at 14. Moreover, the Ki in test [5] (read-out: H4R Ki / binding affinity) was about 10000 nM. Also, the “binding to H4R in initial screening (in words)” value in test [5] is “considerable binding to H4R”.

On to `NCCc1c[nH]cn1` [Histamine, reference compound], for which, in test [1], the “Gi activation at H3R (agonist mode)” value is “strong activation signal”. In addition, the “Gi activation at H4R (agonist mode)” value in test [3] is recorded as “poor stimulant of Gi”.

On to `c1ccc(N2CCN(CC3Cc4ccccc4O3)CC2)cc1` (centres unmarked) [1d, 1-[(2,3-dihydro-1-benzofuran-2-yl)methyl]-4-phenyl-piperazine], for which the “effect on total inflammatory cell and eosinophil counts in bronchoalveolar lavage” value in test [2] was “dose-dependent effect”. In addition, the “affinity for H3R (in words)” value in test [4] is listed as “did not show appreciable affinity”. Besides, the Ki in test [4] (setting [7]) and in test [5] (setting [8]) was over 10000 nM throughout. Besides, in test [6] (earlier report, ref Corrêa et al., 2017), the “anti-inflammatory activity in mouse asthma model” value is listed as “anti-inflammatory activity only at 5 mg/kg dose”.

Take `COc1ccc2c(c1)CC(CN1CCN(C)CC1)O2` (centres unmarked) [1g, 1-methyl-4-[(5-methoxy-2,3-dihydro-1-benzofuran-2-yl)methyl]piperazine]: the figures for the Ki in test [4] (setting [7]) and in test [5] (setting [8]) were 871 nM and over 10000 nM, respectively. In addition, the “SI H4R/H3R (Ki)” value in test [4] is recorded as over 11.
